pIC50: −log10 of the molar value. Counter-ions that a name gives are not always drawn.
Legend:
CCK-B = target: T1, CCK-B (Cavia porcellus, UniProt H0VZC5); experiment: Displacement of 125I-CCK-OP binding to guinea pig brain homogenates (CCK-B binding); settings: guinea pig brain membranes; for inhibition at 10 µM: read-out: CCK-B binding GP brain membranes: percent displacement of 125I-CCK-OP; for pIC50: 125I-CCK-OP, read-out: CCK-B binding GP brain membranes: IC50
T1 construct: Rat pancreas or guinea pig brain was homogenized; from tissue; host or cells: guinea pig brain homogenate (membrane pellet)
T1 sequence (H0VZC5 1-426): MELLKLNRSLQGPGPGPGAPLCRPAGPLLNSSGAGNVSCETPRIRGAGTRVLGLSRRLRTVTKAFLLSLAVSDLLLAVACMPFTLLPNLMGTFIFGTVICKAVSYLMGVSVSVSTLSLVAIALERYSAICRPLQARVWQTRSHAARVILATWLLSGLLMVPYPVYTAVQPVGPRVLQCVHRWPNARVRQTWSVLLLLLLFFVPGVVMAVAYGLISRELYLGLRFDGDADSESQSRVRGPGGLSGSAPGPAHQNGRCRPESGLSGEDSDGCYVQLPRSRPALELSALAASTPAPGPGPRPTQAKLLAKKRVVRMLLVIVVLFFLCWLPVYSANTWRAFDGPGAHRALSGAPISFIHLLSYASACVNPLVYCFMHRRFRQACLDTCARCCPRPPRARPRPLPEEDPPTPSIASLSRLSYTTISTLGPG
Description: Percent displacement of ^125 I-CCK-OP binding to rat pancreatic membrane and guinea pig brain homogenates by compounds of the instant invention at different concentrations was used to quantify CCK-A and CCK-B receptor binding, respectively.
Binding of 125-CCK-OP to rat pancreas (CCK-A) and guinea pig brain (CCK-B) homogenates.
Rat pancreas or guinea pig brain was homogenized in 50 and 20 volumes, respectively, of 50 mM Tris-HCl buffer (pH 7.8 at 25° C.) with a Brinkmann polytron homogenizer. The homogenates were centrifuged twice at 50,000 x g for 20 min with an intermediate rehomogenization in fresh buffer. The final pellets were resuspended in 20 volumes (brain) or 40 volumes (pancreas) of incubation buffer [50 mM Tris-HCl, 5 mM MgCl2, 0.2% BSA, 5 mM dithiothreitol, 0.14 mg/ml bacitracin, pH 7.9 at 25° C.]. One milliliter of the final homogenate from brain or pancreas was diluted to 50 mL with incubation buffer to use in the binding assay.
Binding experiments were performed in a final volume of 1 mL in 13×100 mm borosilicate disposable culture tubes. To duplicate tubes were added 890 μL of freshly resuspended pancreas or brain homogenate; 73,000 dpm of […] (final concentration, 12 pM) and 10 μL of DMSO containing displacing agents (compounds or reference compounds, at the desired final concentrations). Nonspecific (nonsaturable) binding was determined in the presence of 1 μM unlabeled CCK-OP. After incubation for 30 min at 37° C. the binding was stopped by rapid filtration under a reduced pressure through glass fiber FPD-105 Whatman GF/B filters on Harvester and washed twice with 5 mL of ice-cold Tris buffer (50 mM Tris-HCl, pH 7.8). The radioactivity on the filters was counted in a gama counter. […] Specific binding was defined as the excess binding over that in blanks containing 1 μM unlabeled CCK-OP.
Determination of IC50 for displacing agents

CCK-A = target: T2, CCK-A (Rattus norvegicus, UniProt P30551); experiment: Displacement of 125I-CCK-OP binding to rat pancreatic membranes (CCK-A binding); settings: for inhibition at 1 µM: read-out: CCK-A binding rat pancreatic membranes: percent displacement of 125I-CCK-OP; for pIC50: 125I-CCK-OP
T2 sequence (P30551 1-444): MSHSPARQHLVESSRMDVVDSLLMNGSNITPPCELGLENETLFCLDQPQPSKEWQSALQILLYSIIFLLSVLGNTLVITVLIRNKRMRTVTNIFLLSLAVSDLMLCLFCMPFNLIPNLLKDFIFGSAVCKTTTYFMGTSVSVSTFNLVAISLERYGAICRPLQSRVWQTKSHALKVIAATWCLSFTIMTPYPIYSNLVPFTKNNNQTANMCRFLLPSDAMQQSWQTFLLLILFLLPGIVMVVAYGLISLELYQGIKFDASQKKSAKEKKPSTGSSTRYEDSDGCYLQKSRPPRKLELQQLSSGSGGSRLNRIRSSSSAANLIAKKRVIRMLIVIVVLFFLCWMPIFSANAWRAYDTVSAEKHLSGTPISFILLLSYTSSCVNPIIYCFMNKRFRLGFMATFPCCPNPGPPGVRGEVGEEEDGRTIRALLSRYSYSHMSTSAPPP

CCK receptors = experiment: Rat gastric emptying: reversal of CCK-delayed gastric emptying; format: in vivo; settings: IP, CCK 100 μg/Kg i.p.
Description: Rat Gastric Emptying Protocol
A test meal for measuring gastric emptying in rats was prepared. Ten grams of methylcellulose (2% solution=15 centipoises; Aldrich Chemical Company, Milwaukee, Wisc. was added to 200ml of cold water and mixed at 20,000 rpm in a Waring blender to insure dispersion and hydration of the methylcellulose. In addition, two beef bouillon cubes (Wyler's, Columbus, Ohio) dissolved in 100 ml of warm water was added to the mixture, followed by 16 g of casein (Hammersten, Schwartz/Mann, Orangeburg, N.Y.), 8 g of powdered confectioners sugar and 8 g of cornstarch. The ingredients were mixed for two minutes at 20,000 rpm and the resultant test meal was refrigerated for 48 hours to allow trapped air to escape. Male Charles River Rats, Crl: COBS, CD (SD) BR Strain, 180-200 g body weight, were used in groups of six animals. The animals were food deprived for 24 hours prior to the experiment with access to water ad libitum. The compounds to be evaluated were prepared in a 0.5% aqueous methylcellulose solution. If insoluble, the mixture was homogenized for two minutes at 5500 rpm using a Try-R-Stir-R. The compounds were given intraperitoneally or intragastrically at a volume of 5 ml/kg, 60 minutes or 90 min, respectively, before the test meal. Control animals received only the vehicle. Cholecystokinin (100 μg/Kg, i.p.) was given 30 minutes before the test meal to delay gastric emptying by an effect elicited through CCK receptors. Sixty minutes after the test meal (2.0 ml/rat, i.g.), the rats were sacrificed by CO2 asphyxiation. The stomachs were removed intact and weighed. The stomachs were kept opened, gently rinsed with tap water, blotted dry with paper toweling, and the empty stomach weighed. The difference between the weight of the full and empty stomach is indicative of the amount of meal remaining in the stomach. The amount of meal remaining in the stomach was subtracted from the weight of 3 ml of the test meal to determine the amount of food emptied from the stomach during the test. Weight of the test meal was determined by weighing three samples (3 ml) at the beginning and three samples at the end of each experiment and calculating the mean. The mean and standard error of the amount of meal emptied were calculated for at least 5 doses of compound, and expressed as percent change from control.

Structure (SMILES)	inhibition at 10 µM (CCK-B) [%]	inhibition at 1 µM (CCK-A) [%]	pIC50 (CCK-A)	pIC50 (CCK-B)	CCK-delayed gastric emptying: ED50 (CCK receptors) [mpk]
CC(C)(C)OC(=O)[C@@H]1CN(c2ccccc2)C(=O)[C@@H]1NC(=O)c1ccc2ccccc2c1 (relative stereo) [1,1-Dimethylethyl cis-4-[(2-naphthalenylcarbonyl)amino]-5-oxo-1-phenyl-3-pyrrolidinecarboxylate]	35	32			
O=C(N[C@@H]1C(=O)N(c2ccccc2)C[C@H]1C(=O)O)c1ccc2ccccc2c1 (relative stereo) [41 trans]	22				3.2
CCCCCN1C[C@H](C(=O)O)[C@H](NC(=O)Nc2ccc(Cl)cc2)C1=O (relative stereo) [47 cis]			< 6.00		
CCCCCN1C[C@@H](C(=O)O)[C@H](NC(=O)Nc2ccc(Cl)cc2)C1=O (relative stereo) [47 trans]			< 6.00		
CCCCCN1C[C@@H](C(=O)O)[C@@H](NC(=O)c2cnc3ccccc3c2)C1=O (relative stereo) [Example 27, cis-5-oxo-1-pentyl-4-[(3-quinolinylcarbonyl)amino]-3-pyrrolidinecarboxylic acid, monohydrochloride]			6.60	< 5.00	
O=C(N[C@@H]1C(=O)N(c2ccccc2F)C[C@@H]1C(=O)O)c1cnc2ccccc2c1 (relative stereo) [Example 28, cis-1-(2-fluorophenyl)-5-oxo-4-[(3-quinolinylcarbonyl)amino]5-oxo-3-pyrrolidinecarboxylic acid]				< 5.00	
O=C(N[C@@H]1C(=O)N(c2ccccc2)C[C@H]1C(=O)O)c1cc2ccccc2[nH]1 (relative stereo) [Example 30, trans-4-[(1H-Indol-2-ylcarbonyl)amino]-5-oxo-1-phenyl-3-pyrrolidinecarboxylic acid]			6.49		
CCCCCN1C[C@@H](C(=O)O)[C@@H](NC(=O)c2ccc(Cl)c(Cl)c2)C1=O (relative stereo) [Example 32, cis-4-[[(3,4-Dichlorophenyl)carbonyl]amino]-5-oxo-1-pentyl-3-pyrrolidinecarboxylic acid]	49		6.52		
CCCCCN1C[C@@H](C(=O)O)[C@@H](NC(=O)Nc2ccc(Cl)c(Cl)c2)C1=O (relative stereo) [Example 34, cis-4-[[[(3,4-dichlorophenyl)amino]carbonyl]amino]-5-oxo-1-pentyl-3-pyrrolidinecarboxylic acid]			6.46	5.22	

Continued, in another order:

inhibition at 10 µM (CCK-B) [%]	inhibition at 1 µM (CCK-A) [%]	pIC50 (CCK-A)	pIC50 (CCK-B)	Structure (SMILES)	CCK-delayed gastric emptying: ED50 (CCK receptors) [mpk]
		< 6.00	< 5.00	O=C(N[C@@H]1C(=O)N(c2ccccc2)C[C@H]1C(=O)O)c1ccc(Cl)c(Cl)c1 (relative stereo) [Example 35 (trans), trans-4-[[(3,4-dichlorophenyl)carbonyl]amino]-5-oxo-1-phenyl-3-pyrrolidinecarboxylic acid]	
		7.00	5.00	O=C(Nc1ccc(Cl)c(Cl)c1)N[C@H]1C(=O)N(c2ccccc2)C[C@H]1C(=O)O (relative stereo) [Example 36 (cis), cis-4-[[[(3,4-dichlorophenyl)amino]carbonyl]amino]-5-oxo-1-phenyl-3-pyrrolidinecarboxylic acid]	
45		< 6.00		O=C(Nc1ccc(Cl)c(Cl)c1)N[C@@H]1C(=O)N(c2ccccc2)C[C@H]1C(=O)O (relative stereo) [Example 36 (trans)]	
		< 5.00		CCCCCN1C[C@@H](C(=O)O)[C@H](NC(=O)c2ccc3ccccc3c2)C1=O (relative stereo) [Example 39, trans-4-[(2-Naphthalenylcarbonyl)amino]-5-oxo-1-pentyl-3-pyrrolidinecarboxylic acid]	
		5.55	5.00	CCCCCN1C[C@@H](C(=O)O)[C@@H](NC(=O)Nc2ccc3ccccc3c2)C1=O (relative stereo) [Example 40, cis-4-[[(2-Naphthalenylamino)carbonyl]amino]-5-oxo-1-pentyl-3-pyrrolidinecarboxylic acid]	
		< 6.00	< 5.00	CCCCCN1C[C@@H](C(=O)O)[C@@H](NC(=O)c2ccc(Cl)cc2)C1=O (relative stereo) [Example 45]	
		5.80	< 5.00	O=C(N[C@H]1C(=O)N(c2ccccc2)C[C@H]1C(=O)O)c1ccc(Cl)cc1 (relative stereo) [Example 46 (cis), cis-4-[[(4-Chlorophenyl)carbonyl]amino]-5-oxo-1-phenyl-3-pyrrolidinecarboxylic acid]	
		4.39	< 5.00	O=C(N[C@@H]1C(=O)N(c2ccccc2)C[C@H]1C(=O)O)c1ccc(Cl)cc1 (relative stereo) [Example 46 (trans), trans-4-[[(4-Chlorophenyl)carbonyl]amino]-5-oxo-1-phenyl-3-pyrrolidinecarboxylic acid]	
		< 6.00	< 5.00	O=C(Cc1c[nH]c2ccccc12)N[C@@H]1C(=O)N(c2ccccc2)C[C@H]1C(=O)O (relative stereo) [Example 51, trans-4-[(3-indolylacetyl)amino]-5-oxo-1-phenyl-3-pyrrolidinecarboxylic acid]	
45		6.12		O=C(N[C@@H]1C(=O)N(c2ccccc2)C[C@@H]1C(=O)N1CCCC1)c1ccc2ccccc2c1 (relative stereo) [Example 53, cis-1-[[3-[(2-Naphthalenylcarbonyl)amino]-2-oxo-1-phenyl-4-pyrrolidinyl]carbonyl]pyrrolidine]	
	27		5.00	O=C(N[C@@H]1C(=O)N(c2ccccc2)C[C@H]1C(=O)N1CCCC1)c1ccc2ccccc2c1 (relative stereo) [Example 55, trans-1-[[3-[(2-Naphthalenylcarbonyl)amino]-2-oxo-1-phenyl-4-pyrrolidinyl]carbonyl]pyrrolidine]	
